Experimental data reported in ChEMBL document CHEMBL1201862, “PubChem BioAssay data set” (2004).
The source made the active and inactive calls.

Experiments:
HeLa = test: HeLa cell cytotoxicity, dose response, cytotoxicity control for MITF activator project, CellTiter-Glo luminescence, cherry-pick samples (AID 540259); format: functional, cell-based; conditions: Homo sapiens
[1] = Luminescence Cell-Based Dose Retest to Confirm Inhibitors of Cancer Stem Cells. [Related pubchem assays (depositor defined):AID2717, AID2721]; format: functional; conditions: Homo sapiens
[2] = biological target: T1, Latent membrane protein 1 (Human herpesvirus 4 (strain B95-8), UniProt P03230); test: TES1-eGFP NF-kB reporter inhibition versus Tet-On dsRED, dose response, selectivity assay for LMP1 NF-kB inhibitor project, imaging, HEK293T, dual-color eGFP/dsRED, cherry-picks (AID 588398); format: functional, cell-based
T1 sequence (P03230 whole entry): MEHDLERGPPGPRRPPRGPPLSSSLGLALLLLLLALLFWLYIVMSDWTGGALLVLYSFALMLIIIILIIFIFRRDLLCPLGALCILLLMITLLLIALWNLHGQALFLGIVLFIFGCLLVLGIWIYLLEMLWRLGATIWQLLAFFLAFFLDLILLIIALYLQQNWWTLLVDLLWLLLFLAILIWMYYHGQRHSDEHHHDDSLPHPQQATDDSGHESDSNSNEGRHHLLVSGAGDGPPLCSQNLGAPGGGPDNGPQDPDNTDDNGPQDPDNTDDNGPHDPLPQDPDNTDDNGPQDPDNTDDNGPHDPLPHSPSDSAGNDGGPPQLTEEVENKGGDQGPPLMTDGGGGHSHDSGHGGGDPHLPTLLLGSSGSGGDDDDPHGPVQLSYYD

[3] = cytotoxicity in HMLE control line with eGFP shRNA, dose response, counter-screen for HMLE_sh_ECad selective toxicity project, cell-based, HMLE_sh_eGFP, luminescence (AID 463074); format: functional, Homo sapiens;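 note: HMLE human mammary epithelial cells expressing control shRNA against eGFP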
[4] = biological target: SWI/SNF-related matrix-associated actin-dependent regulator of chromatin subfamily A member 2 (Homo sapiens, UniProt P51531); test: Luminescence-based cell-based high throughput dose response assay to identify activators of the function of SWI/SNF related, matrix associated, actin dependent regulator of chromatin, subfamily a, member 2 (SMARCA2, BRM).; format: functional
Chain of SWI/SNF-related matrix-associated actin-dependent regulator of chromatin subfamily A member 2 (P51531 whole entry): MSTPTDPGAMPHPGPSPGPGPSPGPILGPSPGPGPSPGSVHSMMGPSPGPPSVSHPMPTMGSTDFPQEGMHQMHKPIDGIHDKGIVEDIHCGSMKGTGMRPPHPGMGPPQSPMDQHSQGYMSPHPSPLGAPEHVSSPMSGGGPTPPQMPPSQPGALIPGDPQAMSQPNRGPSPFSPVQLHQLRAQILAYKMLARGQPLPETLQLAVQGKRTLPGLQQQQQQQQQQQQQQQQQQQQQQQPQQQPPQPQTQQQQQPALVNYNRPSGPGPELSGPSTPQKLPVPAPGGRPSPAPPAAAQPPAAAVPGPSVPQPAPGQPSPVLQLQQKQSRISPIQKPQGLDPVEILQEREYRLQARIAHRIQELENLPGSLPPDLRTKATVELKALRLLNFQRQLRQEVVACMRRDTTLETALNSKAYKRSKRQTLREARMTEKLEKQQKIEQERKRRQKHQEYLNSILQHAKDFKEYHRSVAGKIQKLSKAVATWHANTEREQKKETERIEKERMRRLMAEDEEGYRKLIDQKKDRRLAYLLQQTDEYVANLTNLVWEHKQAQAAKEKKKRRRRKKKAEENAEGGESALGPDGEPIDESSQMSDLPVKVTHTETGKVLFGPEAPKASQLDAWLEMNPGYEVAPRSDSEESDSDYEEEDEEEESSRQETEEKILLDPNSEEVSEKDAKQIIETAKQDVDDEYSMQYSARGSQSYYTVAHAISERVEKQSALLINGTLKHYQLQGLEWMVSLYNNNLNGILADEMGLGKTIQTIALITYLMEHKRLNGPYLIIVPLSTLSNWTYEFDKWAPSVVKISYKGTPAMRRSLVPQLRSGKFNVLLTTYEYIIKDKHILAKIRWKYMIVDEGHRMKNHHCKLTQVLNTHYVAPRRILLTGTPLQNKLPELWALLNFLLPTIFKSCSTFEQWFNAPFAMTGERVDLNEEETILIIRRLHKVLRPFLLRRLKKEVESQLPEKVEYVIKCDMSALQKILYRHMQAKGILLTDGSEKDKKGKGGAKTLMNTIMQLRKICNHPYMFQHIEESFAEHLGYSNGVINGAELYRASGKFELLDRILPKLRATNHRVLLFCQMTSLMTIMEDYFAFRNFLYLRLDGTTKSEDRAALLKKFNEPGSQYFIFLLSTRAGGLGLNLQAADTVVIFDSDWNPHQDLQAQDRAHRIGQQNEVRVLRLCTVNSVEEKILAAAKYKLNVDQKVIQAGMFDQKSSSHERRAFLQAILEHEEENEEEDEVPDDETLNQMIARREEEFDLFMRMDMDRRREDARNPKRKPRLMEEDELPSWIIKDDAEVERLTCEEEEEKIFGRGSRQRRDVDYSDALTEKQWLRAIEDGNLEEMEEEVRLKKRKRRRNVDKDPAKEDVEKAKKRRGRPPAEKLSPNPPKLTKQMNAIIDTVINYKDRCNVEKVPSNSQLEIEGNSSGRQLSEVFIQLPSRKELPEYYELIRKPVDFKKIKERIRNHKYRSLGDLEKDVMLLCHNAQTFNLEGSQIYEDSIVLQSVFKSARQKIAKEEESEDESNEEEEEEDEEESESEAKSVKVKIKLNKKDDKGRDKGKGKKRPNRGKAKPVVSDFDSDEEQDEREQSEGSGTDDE

[5] = Counterscreen for activators of the function of SWI/SNF related, matrix associated, actin dependent regulator of chromatin, subfamily a, member 2 (SMARCA2, BRM): Luminescence-based cell-based high throughput dose response assay to identify non-selective compounds using the VP16 reporter assay.; format: functional
Caspase-7 = Caspase-7 (Homo sapiens, UniProt P55210); test: human caspase-7 inhibitors, dose response, selectivity assay for caspase-6 inhibitor project, biochemical, DEVD-R110 fluorescence, cherry-pick (AID 743295)
Chain of Caspase-7 (P55210 24-198 limits assumed): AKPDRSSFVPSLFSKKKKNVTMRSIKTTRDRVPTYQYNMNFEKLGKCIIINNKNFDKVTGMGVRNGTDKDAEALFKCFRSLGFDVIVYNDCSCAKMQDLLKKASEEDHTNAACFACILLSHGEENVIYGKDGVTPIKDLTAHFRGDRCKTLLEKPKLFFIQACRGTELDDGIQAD
Chain of Caspase-7 (P55210 207-303 limits assumed): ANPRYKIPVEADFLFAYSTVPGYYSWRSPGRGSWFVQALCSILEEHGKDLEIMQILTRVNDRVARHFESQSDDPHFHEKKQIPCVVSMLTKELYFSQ

Caspase-6 = biological target: T2, Caspase-6 (Homo sapiens, UniProt P55212); test: human caspase-6 inhibitors, dose response, biochemical, VEID-R110 fluorescence, cherry-pick (AID 720632)
T2 sequence (P55212 whole entry): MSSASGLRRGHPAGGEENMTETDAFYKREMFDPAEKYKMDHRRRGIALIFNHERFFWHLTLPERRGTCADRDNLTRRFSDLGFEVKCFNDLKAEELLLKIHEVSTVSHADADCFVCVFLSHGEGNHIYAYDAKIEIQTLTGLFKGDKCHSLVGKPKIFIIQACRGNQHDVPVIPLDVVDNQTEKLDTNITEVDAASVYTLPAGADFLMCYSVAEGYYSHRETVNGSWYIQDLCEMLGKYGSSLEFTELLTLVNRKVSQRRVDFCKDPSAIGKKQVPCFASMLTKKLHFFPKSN

Keap1/Nrf2 = Keap1/Nrf2 (Homo sapiens, UniProt Q14145); test: Keap1-Nrf2 protein-protein interaction inhibitors, dose response, biochemical, fluorescence polarization, cherry-picked samples (AID 588683)
Chain of Keap1/Nrf2 (Q16236 whole entry): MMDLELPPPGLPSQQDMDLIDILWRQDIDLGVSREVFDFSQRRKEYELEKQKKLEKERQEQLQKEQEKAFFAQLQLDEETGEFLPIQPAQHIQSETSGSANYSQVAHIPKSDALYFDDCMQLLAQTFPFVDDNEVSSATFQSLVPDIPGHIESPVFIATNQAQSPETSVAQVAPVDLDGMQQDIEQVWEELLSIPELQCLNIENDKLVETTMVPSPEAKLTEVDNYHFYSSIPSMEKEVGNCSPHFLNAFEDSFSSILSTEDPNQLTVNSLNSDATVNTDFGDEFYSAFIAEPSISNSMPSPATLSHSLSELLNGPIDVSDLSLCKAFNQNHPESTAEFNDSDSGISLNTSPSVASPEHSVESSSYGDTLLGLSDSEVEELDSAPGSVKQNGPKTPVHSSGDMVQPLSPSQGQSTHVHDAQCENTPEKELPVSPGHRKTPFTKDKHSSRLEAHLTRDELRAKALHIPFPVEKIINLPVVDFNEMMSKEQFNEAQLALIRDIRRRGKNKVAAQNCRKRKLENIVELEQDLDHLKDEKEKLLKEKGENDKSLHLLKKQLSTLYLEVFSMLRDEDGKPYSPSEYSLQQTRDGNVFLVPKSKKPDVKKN
Chain of Keap1/Nrf2 (Q14145 whole entry): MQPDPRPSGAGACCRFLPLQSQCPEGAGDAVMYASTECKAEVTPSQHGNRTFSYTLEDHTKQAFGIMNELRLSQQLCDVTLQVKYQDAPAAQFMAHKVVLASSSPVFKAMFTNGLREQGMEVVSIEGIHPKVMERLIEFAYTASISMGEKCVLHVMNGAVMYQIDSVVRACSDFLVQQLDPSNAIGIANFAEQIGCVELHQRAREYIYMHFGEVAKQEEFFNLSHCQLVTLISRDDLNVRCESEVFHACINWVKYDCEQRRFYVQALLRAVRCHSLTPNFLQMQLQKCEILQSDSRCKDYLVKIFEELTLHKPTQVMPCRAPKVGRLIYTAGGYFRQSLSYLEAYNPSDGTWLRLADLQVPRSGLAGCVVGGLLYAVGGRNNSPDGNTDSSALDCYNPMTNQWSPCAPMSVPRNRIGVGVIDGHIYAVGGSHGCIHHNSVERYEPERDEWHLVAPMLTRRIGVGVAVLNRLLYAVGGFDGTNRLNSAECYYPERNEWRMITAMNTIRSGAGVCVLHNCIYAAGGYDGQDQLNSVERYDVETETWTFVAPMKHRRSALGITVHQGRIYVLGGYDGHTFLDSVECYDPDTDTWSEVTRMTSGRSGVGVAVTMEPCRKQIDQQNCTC

Question: For `c1ccc(Cc2cc(-c3ccccc3)on2)cc1`, which AC50 (HeLa) is on record?
Answer: Its AC50 is 253 µM (active).

Question: With `C=CC(=O)OCCOCCOCCOCCOC(=O)C=C` as the compound, how does the AC50 [1] read?
Answer: The AC50 was 19.2 µM (active).

Question: What about the AC50 [2] of the same compound?
Answer: Its AC50 is 25 µM (active).

Question: What about the AC50 [3] of the same compound?
Answer: The AC50 was 92 µM (active).

Question: And the EC50 [4]?
Answer: Its EC50 is > 91.2 µM (inactive).

Question: And the EC50 [5]?
Answer: Its EC50 is > 91.2 µM (inactive).

Question: Which results are given for `Cc1oc2c(cc(NS(=O)(=O)c3ccc(C(C)C)cc3)c3ccccc32)c1C(=O)O`?
Answer: AC50 (Caspase-7): > 70 µM (inactive); AC50 (Caspase-6): 4 µM (active); AC50 (Keap1/Nrf2): 21.7 µM (active)
